Test results reported in ChEMBL document CHEMBL4261543, “Integrating docking scores and key interaction profiles to improve the accuracy of molecular docking: towards novel B-RafV600E inhibitors” (Medchemcomm, 2017).

The molecules below were run against Serine/threonine-protein kinase B-raf (Homo sapiens, UniProt P15056, V600E) (assay: Inhibition of B-Raf V600E mutant (unknown origin) using fluorescein-MAP2K1 as substrate after 1 hr by electrophoretic assay).
Sequence of Serine/threonine-protein kinase B-raf (P15056 2-766 V600E limits assumed): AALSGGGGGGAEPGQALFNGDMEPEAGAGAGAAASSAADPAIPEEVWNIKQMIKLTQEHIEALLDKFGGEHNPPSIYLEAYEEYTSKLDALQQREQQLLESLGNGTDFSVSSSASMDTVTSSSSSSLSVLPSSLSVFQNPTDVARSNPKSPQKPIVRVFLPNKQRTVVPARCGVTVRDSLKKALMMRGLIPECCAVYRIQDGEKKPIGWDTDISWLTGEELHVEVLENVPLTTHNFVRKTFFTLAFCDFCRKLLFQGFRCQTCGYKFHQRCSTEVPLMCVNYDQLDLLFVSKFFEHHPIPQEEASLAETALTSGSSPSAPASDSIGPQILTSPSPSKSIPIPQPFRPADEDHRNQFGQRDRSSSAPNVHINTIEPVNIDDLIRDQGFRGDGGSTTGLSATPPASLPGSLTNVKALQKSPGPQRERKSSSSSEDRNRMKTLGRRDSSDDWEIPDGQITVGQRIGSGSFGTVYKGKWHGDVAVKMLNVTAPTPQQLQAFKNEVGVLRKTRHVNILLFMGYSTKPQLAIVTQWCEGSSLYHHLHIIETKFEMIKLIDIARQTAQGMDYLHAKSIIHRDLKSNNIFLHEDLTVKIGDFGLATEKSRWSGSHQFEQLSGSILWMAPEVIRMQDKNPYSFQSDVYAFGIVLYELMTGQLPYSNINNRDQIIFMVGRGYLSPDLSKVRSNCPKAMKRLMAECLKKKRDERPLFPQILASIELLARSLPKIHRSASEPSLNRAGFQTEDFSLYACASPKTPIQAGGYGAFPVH

| Structure (SMILES) | IC50 [nM] |
| --- | --- |
| CCCS(=O)(=O)Nc1ccc(Cl)c(C(=O)Nc2cnc3[nH]ccc3c2)c1F | 6.3 |
| CCCS(=O)(=O)Nc1ccc(F)c(C(=O)Nc2cnc3[nH]cc(N(C)C)c3c2)c1F | 8.2 |
| O=c1c(O)c(-c2ccc(O)c(O)c2)oc2cc(O)cc(O)c12 [QUERCETIN] | 7590 |
| CCCS(=O)(=O)Nc1ccc(Cl)c(C(=O)Nc2cnc3[nH]cc(OC)c3c2)c1F | 1.7 |
| CCCS(=O)(=O)Nc1ccc(F)c(C(=O)Nc2cnc3[nH]cnc3c2)c1C | 61 |
| CCCS(=O)(=O)Nc1ccc(F)c(C(=O)Nc2ccc(N)nc2)c1F | 917 to 920 |
| O=c1c(O)c(-c2cc(O)c(O)c(O)c2)oc2cc(O)cc(O)c12 [MYRICETIN] | 1560 |

The remaining lines, values ahead:

| IC50 [nM] | Structure (SMILES) |
| --- | --- |
| 3.4 to 4 | CCCS(=O)(=O)Nc1ccc(F)c(C(=O)Nc2cnc3[nH]cc(Br)c3c2)c1F |
| 12 | CCCS(=O)(=O)Nc1ccc(F)c(C(=O)Nc2cnc3[nH]cc(C)c3c2)c1F |
| 17 | CCCS(=O)(=O)Nc1ccc(F)c(C(=O)Nc2cnc3[nH]ccc3c2)c1F |
| 38 | CCCS(=O)(=O)Nc1ccc(F)c(C(=O)Nc2cnc3[nH]ccc3c2)c1C |
| 4.8 | CCCS(=O)(=O)Nc1ccc(F)c(C(=O)Nc2cnc3[nH]cc(OC)c3c2)c1F |

The molecules below were run on Serine/threonine-protein kinase B-raf (Homo sapiens), P15056 [V600E] (assay: Inhibition of B-Raf V600E mutant (unknown origin) at 10 uM using fluorescein-MAP2K1 as substrate after 1 hr by electrophoretic assay relative to control).
Sequence of Serine/threonine-protein kinase B-raf (Homo sapiens), P15056 [V600E] (P15056 whole entry V600E): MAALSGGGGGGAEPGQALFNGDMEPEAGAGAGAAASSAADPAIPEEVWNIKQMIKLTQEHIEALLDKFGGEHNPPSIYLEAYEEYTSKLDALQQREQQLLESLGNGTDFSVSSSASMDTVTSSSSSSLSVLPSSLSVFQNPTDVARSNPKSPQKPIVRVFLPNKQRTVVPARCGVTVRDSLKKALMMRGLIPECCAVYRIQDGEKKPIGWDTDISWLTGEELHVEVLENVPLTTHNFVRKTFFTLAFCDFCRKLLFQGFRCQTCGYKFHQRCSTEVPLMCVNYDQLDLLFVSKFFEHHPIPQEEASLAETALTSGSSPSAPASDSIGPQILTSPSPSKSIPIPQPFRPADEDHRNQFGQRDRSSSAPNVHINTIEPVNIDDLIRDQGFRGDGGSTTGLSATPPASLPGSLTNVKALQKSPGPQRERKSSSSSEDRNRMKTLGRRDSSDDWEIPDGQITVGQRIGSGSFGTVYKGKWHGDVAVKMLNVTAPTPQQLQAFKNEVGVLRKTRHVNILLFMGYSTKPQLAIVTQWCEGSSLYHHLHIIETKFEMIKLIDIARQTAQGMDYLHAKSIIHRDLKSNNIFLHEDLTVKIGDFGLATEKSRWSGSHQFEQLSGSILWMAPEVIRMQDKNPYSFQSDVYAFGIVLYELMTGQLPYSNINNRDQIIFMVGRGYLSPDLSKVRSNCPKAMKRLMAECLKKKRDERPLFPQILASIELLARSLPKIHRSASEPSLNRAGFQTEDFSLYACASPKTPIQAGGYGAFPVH

| Structure (SMILES) | inhibition [%] |
| --- | --- |
| CCCS(=O)(=O)Nc1ccc(F)c(NC(=O)c2cccc3c(N)ncnc23)c1Cl | > 40 |
| C[C@@H](NC(=O)C1CCNCC1)c1ccc(Nc2ncc3cc(-c4ccncc4)ccc3n2)cc1 | > 40 |
| CCCS(=O)(=O)Nc1ccc(Cl)c(C(=O)Nc2cnc3[nH]ccc3c2)c1F | > 40 |
| CC(C)(C)c1nc(-c2cccc(NS(=O)(=O)c3c(F)cccc3F)c2F)c(-c2ccnc(N)n2)s1 | > 40 |
| CCCS(=O)(=O)Nc1ccc(F)c(-c2cc3cnc(NC4CCOCC4)nc3n(C)c2=O)c1F | > 40 |
| COCCNC(=O)c1ccc(Nc2ncc3cc(-c4ccncc4C)ccc3n2)cc1 | > 40 |
| COCCNC(=O)c1ccc(Nc2ncc3cc(-c4ccc(F)nc4)ccc3n2)cc1 | > 40 |
| COCCNC(=O)c1ccc(Nc2ncc3cc(-c4ccnc(C)c4)ccc3n2)cc1 | > 40 |
| C[C@@H](NC1=CC(=O)CNC1)c1ccc(Nc2ncc3cc(-c4ccncc4)ccc3n2)cc1 | > 40 |
| CCCS(=O)(=O)Nc1ccc(F)c(C(=O)Nc2cnc3[nH]cc(N(C)C)c3c2)c1F | > 40 |
| COCCOc1ccc(Nc2ncc3cc(-c4ccncc4)ccc3n2)cc1 | > 40 |
| COCCNC(=O)c1ccc(Nc2ncc3cc(-c4cncnc4)ccc3n2)cc1 | > 40 |
| COCCNC(=O)c1ccc(Nc2ncc3cc(-c4ccc(OC)nc4)ccc3n2)cc1 | > 40 |
| CC(C)(C)c1nc(-c2cccc(NS(=O)(=O)c3cc(F)ccc3F)c2)c(-c2ccnc(N)n2)s1 | > 40 |
| CCCS(=O)(=O)Nc1ccc(F)c(NC(=O)c2csc3c(N)ncnc23)c1Cl | > 40 |
| COCCNC(=O)c1ccc(Nc2ncc3cc(-c4cccnc4)ccc3n2)cc1 | > 40 |
| CC(=O)N(C)c1ccc(Nc2ncc3cc(-c4ccncc4)ccc3n2)cc1 | > 40 |
| Nc1ncnc2c(C(=O)Nc3c(Cl)ccc(NS(=O)(=O)CCCF)c3F)csc12 | > 40 |
| CCCS(=O)(=O)Nc1ccc(F)c(NC(=O)c2csc3c(N)ncnc23)c1F | > 40 |
| O=C(NCCN1CCCC1)c1ccc(Nc2ncc3cc(-c4ccncc4)ccc3n2)cc1 | > 40 |
| CC(C)c1nc(-c2ccc(F)c(NS(=O)(=O)c3c(F)cccc3F)c2)c(-c2ccnc(Nc3ccc(N4CCOCC4)nc3)n2)s1 | > 40 |
| CCCS(=O)(=O)Nc1ccc(F)c(NC(=O)N(C)c2cc(N)ncn2)c1F | > 40 |
| CC(C)c1nc(-c2cccc(NS(=O)(=O)c3cccc(F)c3)c2)c(-c2ccnc(NCC(N)=O)n2)s1 | > 40 |
| CC(C)c1nc(-c2cccc(NS(=O)(=O)c3cccc(F)c3)c2)c(-c2ccnc(NCCCN(C)C)n2)s1 | > 40 |
| CC(C)c1nc(-c2cccc(NS(=O)(=O)c3c(F)cccc3F)c2)c(-c2ccnc(NCCS(C)(=O)=O)n2)s1 | > 40 |

| Structure (SMILES) | inhibition [%] |
| --- | --- |
| CC(=O)N[C@H](C)c1ccc(Nc2ncc3cc(-c4ccncc4)cc(Cl)c3n2)cc1 | > 40 |
| CCCS(=O)(=O)Nc1ccc(C)c(-c2ccc3nc(N)ncc3c2)c1 | > 40 |
| C[C@@H](NC(=O)[C@H]1CCCCN1C)c1ccc(Nc2ncc3cc(-c4ccncc4)ccc3n2)cc1 | > 40 |
| c1cc(-c2ccc3nc(Nc4ccc(OCCN5CCCC5)cc4)ncc3c2)ccn1 | > 40 |
| CC(=O)N[C@H](C)c1ccc(Nc2ncc3cc(-c4ccncc4)c(C)cc3n2)cc1 | > 40 |
| CCCS(=O)(=O)Nc1ccc(Cl)c(NC(=O)c2cccc3c(N)ncnc23)c1F | > 40 |
| CCCS(=O)(=O)Nc1ccc(Cl)c(NC(=O)c2csc3c(N)ncnc23)c1F | > 40 |
| CCCS(=O)(=O)Nc1ccc(F)c(NC(=O)Nc2cc(NC)ncn2)c1F | > 40 |
| CCCS(=O)(=O)Nc1ccc(Cl)c(C(=O)Nc2cnc3[nH]cc(OC)c3c2)c1F | > 40 |
| CC(=O)Nc1ccc(Nc2ncc3cc(-c4ccncc4)ccc3n2)cc1 | > 40 |
| CN(C)CCNC(=O)c1ccc(Nc2ncc3cc(-c4ccncc4)ccc3n2)cc1 | > 40 |
| CCCS(=O)(=O)Nc1ccc(F)c(NC(=O)Nc2ncnc3[nH]nc(OC)c23)c1F | > 40 |
| CN1CCCC1CCNC(=O)c1ccc(Nc2ncc3cc(-c4ccncc4)ccc3n2)cc1 (stereo unspecified) | > 40 |
| CCCS(=O)(=O)Nc1ccc(F)c(C(=O)c2c[nH]c3ncc(-c4ccc(Cl)cc4)cc23)c1F | > 40 |
| COCCNC(=O)c1ccc(Nc2ncc3cc(-c4ccncc4)ccc3n2)cc1F | > 40 |
| CCCS(=O)(=O)Nc1ccc(F)c(C(=O)Nc2cnc3[nH]cnc3c2)c1C | > 40 |
| Nc1ncnc2c(C(=O)Nc3c(Cl)ccc(NS(=O)(=O)CCCF)c3F)cccc12 | > 40 |
| COCCNC(=O)c1ccc(Nc2ncc3cc(-c4ccccc4)ccc3n2)cc1 | > 40 |
| COCCNC(=O)c1ccc(Nc2ncc3cc(-c4ccncc4OC)ccc3n2)cc1 | > 40 |
| CCCS(=O)(=O)Nc1ccc(F)c(C(=O)Nc2ccc(N)nc2)c1F | > 40 |
| CC(C)c1nc(-c2cccc(NS(=O)(=O)c3c(F)cccc3F)c2)c(-c2ccnc(N)n2)s1 | > 40 |
| C[C@@H](NC(=O)[C@H]1CCCCN1CCO)c1ccc(Nc2ncc3cc(-c4ccncc4)ccc3n2)cc1 | > 40 |
| COCCNC(=O)c1ccc(Nc2ncc3cc(-c4ccncc4Cl)ccc3n2)cc1 | > 40 |
| CC(C)c1nc(-c2ccc(F)c(NS(=O)(=O)c3c(F)cccc3F)c2)c(-c2ccnc(NCCS(C)(=O)=O)n2)s1 | > 40 |

Now from value to molecule:

| inhibition [%] | Structure (SMILES) |
| --- | --- |
| > 40 | CCCS(=O)(=O)Nc1ccc(F)c(-c2ccc3ccncc3c2)c1F |
| > 40 | CCCS(=O)(=O)Nc1ccc(F)c(-c2cc3cnc(NCC4CC4)nc3n(C)c2=O)c1F |
| > 40 | CCCS(=O)(=O)Nc1ccc(F)c(-c2cc3cnc(NCCO)nc3n(C)c2=O)c1F |
| > 40 | CCCS(=O)(=O)Nc1ccc(F)c(-c2cc3cnc(Nc4cccnc4)nc3n(C)c2=O)c1F |
| > 40 | CCCS(=O)(=O)Nc1ccc(F)c(NC(=O)c2cccc3c(N)ncnc23)c1F |
| > 40 | CCCS(=O)(=O)Nc1ccc(F)c(-c2cc3cnc(NC)nc3n(C)c2=O)c1F |
| > 40 | CCCS(=O)(=O)Nc1ccc(F)c(-c2ccc3cc(N)ncc3c2)c1F |
| > 40 | CCCS(=O)(=O)Nc1ccc(F)c(C(=O)Nc2cnc3[nH]cc(Br)c3c2)c1F |
| > 40 | CCCS(=O)(=O)Nc1ccc(F)c(C(=O)Nc2cnc3[nH]cc(C)c3c2)c1F |
| > 40 | CCCS(=O)(=O)Nc1ccc(F)c(NC(=O)Nc2cc(N)ncn2)c1F |
| > 40 | CCCS(=O)(=O)Nc1ccc(F)c(-c2cc3cnc(Nc4ccccc4)nc3n(C)c2=O)c1F |
| > 40 | CCCS(=O)(=O)Nc1ccc(F)c(-c2cc3cncc(Br)c3cn2)c1F |
| > 40 | CCCS(=O)(=O)Nc1ccc(F)c(-c2cc3cnccc3c(=O)n2C)c1F |
| > 40 | CCCS(=O)(=O)Nc1ccc(F)c(-c2cc3cnc(NCCCO)nc3n(C)c2=O)c1F |
| > 40 | CCCS(=O)(=O)Nc1ccc(F)c(-c2cc3cnc(Nc4cnn(C)c4)nc3n(C)c2=O)c1F |
| > 40 | CCCS(=O)(=O)Nc1ccc(F)c(NC(=O)Nc2ncnc3[nH]ncc23)c1F |
| > 40 | CCCS(=O)(=O)Nc1ccc(F)c(-c2ccc3nc(N)ncc3c2)c1F |
| > 40 | CCCS(=O)(=O)Nc1ccc(F)c(C(=O)Nc2cnc3[nH]ccc3c2)c1F |
| > 40 | CCCS(=O)(=O)Nc1ccc(F)c(-c2ccc3ccncc3n2)c1F |
| > 40 | CCCS(=O)(=O)Nc1ccc(F)c(-c2cc3cnccc3n(CCc3ccccc3)c2=O)c1F |
| > 40 | CCCS(=O)(=O)Nc1ccc(F)c(-c2cc3cnc(N)nc3n(C)c2=O)c1F |
| > 40 | CCCS(=O)(=O)Nc1ccc(F)c(C(=O)Nc2cnc3[nH]nc(OC)c3c2)c1F |
| > 40 | CCCS(=O)(=O)Nc1ccc(F)c(C(=O)Nc2cnc3[nH]ccc3c2)c1C |
| > 40 | CCCS(=O)(=O)Nc1ccc(F)c(C(=O)Nc2cnc3[nH]cc(OC)c3c2)c1F |
| > 40 | CCCS(=O)(=O)Nc1ccc(F)c(-c2cc3cnccc3cn2)c1F |
